{
  "source": "ChEMBL document CHEMBL1201862",
  "about": "“PubChem BioAssay data set” (2004)",
  "key": {"[1]": {"target": "G-protein coupled receptor 55 (Homo sapiens, UniProt Q9Y2T6)", "sequence (Q9Y2T6 whole entry)": "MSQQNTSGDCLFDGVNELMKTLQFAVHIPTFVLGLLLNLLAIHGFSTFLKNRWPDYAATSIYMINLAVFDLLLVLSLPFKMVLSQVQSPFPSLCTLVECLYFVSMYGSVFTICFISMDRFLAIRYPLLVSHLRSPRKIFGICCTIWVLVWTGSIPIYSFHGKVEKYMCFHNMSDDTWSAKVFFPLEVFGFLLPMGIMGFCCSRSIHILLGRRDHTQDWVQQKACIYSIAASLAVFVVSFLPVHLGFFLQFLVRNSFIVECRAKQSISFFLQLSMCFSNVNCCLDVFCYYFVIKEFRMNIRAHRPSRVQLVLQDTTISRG", "test": "GPR55 antagonists, SAR follow-up, counter-screen for GPR35 antagonist project, imaging, image-based (AID 2397)", "format": "functional"}, "[2]": {"target": "DNA damage-inducible transcript 3 protein (Mus musculus, UniProt P35639)", "sequence (P35639 whole entry)": "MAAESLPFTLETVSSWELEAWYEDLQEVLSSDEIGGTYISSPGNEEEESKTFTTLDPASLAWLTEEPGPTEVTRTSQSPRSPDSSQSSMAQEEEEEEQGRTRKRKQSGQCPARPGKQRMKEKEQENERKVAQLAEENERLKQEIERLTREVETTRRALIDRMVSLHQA", "format": "functional, Cricetulus griseus"}, "HEK293 [3]": {"tested_on": "HEK293", "test": "NOD2 signaling inhibitors in MDP-stimulated cells, cell-based, uHTS, luminescence (AID 2001)", "format": "functional", "settings": "Homo sapiens"}, "HEK293 [4]": {"tested_on": "HEK293", "test": "cells", "format": "functional, cell-based", "settings": "Homo sapiens"}, "HEK293 [5]": {"tested_on": "HEK293", "test": "NOD1 signaling inhibitors, primary screen, cell-based, luminescence, uHTS (AID 1578)", "format": "functional", "settings": "Homo sapiens"}, "HEK293 [6]": {"tested_on": "HEK293", "test": "cells", "format": "functional, cell-based", "settings": "Homo sapiens", "remark": "listed apart in the source"}, "X-box-binding protein 1": {"target": "T1, X-box-binding protein 1 (Homo sapiens, UniProt P17861)", "T1 sequence (P17861 whole entry)": "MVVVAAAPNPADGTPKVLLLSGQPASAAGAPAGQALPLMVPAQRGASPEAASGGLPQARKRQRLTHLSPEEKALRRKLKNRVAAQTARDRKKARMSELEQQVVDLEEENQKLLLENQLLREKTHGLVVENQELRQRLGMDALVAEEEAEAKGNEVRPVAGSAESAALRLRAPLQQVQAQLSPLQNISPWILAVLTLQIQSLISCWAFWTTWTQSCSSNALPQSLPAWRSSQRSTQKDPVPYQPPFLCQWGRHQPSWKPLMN", "format": "functional, Cricetulus griseus"}, "[7]": {"target": "Peroxisome proliferator-activated receptor gamma/Nuclear receptor coactivator 3 (Homo sapiens, UniProt P37231)", "test": "(§1) TR-FRET dose response biochemical High Throughput Screening assay for agonists of the steroid receptor coactivator 3 (SRC-3) recruitment by the peroxisome proliferator-activated receptor gamma (PPAR gamma): non-selective agonists. [Related pubchem assays: 1301 (Confirmation screen.), 1048 (Primary screen.)]", "format": "functional"}, "[8]": {"target": "Peroxisome proliferator-activated receptor gamma/Nuclear receptor coactivator 1 (Homo sapiens, UniProt P37231)", "test": "as §1, with “1 (SRC-1)” for “3 (SRC-3)”, “assays (depositor defined):AID1300, AID1808, AID504735, AID631]” for “assays: 1301 (Confirmation screen.), 1048 (Primary screen.)]”", "format": "protein assay"}, "[9]": {"target": "Peroxisome proliferator-activated receptor gamma/Nuclear receptor coactivator 2 (Homo sapiens, UniProt P37231)", "sequence (P37231 whole entry)": "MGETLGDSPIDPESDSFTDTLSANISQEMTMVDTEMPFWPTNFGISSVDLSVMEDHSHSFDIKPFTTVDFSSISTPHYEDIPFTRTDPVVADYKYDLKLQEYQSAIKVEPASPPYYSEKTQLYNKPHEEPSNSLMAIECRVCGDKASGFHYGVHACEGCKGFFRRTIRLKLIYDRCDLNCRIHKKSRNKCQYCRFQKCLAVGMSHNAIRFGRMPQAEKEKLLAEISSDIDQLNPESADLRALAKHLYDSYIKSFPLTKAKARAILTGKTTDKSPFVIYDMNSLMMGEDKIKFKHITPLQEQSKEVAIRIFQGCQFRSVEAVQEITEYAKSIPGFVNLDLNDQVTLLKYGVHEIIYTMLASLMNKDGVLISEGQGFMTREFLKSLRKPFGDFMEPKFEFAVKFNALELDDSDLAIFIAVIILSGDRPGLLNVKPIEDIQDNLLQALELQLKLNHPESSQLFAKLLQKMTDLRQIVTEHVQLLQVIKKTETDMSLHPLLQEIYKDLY", "sequence (Q15596 whole entry, further chain)": "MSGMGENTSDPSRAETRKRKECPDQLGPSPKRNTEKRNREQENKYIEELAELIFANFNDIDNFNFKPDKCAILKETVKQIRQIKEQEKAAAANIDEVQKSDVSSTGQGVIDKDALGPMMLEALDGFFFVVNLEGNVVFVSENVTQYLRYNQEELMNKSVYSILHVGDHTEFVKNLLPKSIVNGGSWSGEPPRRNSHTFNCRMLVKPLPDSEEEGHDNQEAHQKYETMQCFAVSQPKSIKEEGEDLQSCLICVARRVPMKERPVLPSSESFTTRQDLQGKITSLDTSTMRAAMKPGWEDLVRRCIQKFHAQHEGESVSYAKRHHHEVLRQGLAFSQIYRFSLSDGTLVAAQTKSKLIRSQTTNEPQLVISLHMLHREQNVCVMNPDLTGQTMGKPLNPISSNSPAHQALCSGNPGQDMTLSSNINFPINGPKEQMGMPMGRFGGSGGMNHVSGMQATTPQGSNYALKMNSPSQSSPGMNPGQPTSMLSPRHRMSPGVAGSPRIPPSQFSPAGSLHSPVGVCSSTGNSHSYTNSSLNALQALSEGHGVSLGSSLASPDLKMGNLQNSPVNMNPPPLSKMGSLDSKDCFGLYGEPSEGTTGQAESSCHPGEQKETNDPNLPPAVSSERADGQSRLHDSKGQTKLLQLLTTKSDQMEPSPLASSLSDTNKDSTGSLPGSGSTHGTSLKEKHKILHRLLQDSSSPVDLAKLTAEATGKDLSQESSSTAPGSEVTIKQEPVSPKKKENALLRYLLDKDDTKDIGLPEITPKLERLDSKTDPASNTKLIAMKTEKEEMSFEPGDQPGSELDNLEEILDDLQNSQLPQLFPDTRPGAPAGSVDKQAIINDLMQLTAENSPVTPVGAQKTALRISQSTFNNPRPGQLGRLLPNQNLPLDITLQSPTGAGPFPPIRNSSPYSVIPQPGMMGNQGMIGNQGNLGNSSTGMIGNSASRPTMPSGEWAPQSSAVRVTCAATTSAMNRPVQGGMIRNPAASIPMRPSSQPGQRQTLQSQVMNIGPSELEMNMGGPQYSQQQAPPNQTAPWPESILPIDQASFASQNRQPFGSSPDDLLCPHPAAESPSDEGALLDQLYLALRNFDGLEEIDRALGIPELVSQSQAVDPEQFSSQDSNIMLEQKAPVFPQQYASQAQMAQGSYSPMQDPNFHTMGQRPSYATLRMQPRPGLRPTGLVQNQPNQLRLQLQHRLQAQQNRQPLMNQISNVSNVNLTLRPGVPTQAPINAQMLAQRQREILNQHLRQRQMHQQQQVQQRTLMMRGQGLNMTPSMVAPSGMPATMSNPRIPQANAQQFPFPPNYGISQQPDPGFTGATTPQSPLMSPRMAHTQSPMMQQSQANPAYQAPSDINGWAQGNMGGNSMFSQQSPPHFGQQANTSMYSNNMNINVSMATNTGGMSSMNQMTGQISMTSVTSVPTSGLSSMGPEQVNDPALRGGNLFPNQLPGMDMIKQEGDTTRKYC", "test": "TR-FRET dose response biochemical High Throughput Screening assay for agonists of the steroid receptor coactivator 2 (SRC-2) recruitment by the peroxisome proliferator-activated receptor gamma (PPAR gamma): non-selective agonists. [Related pubchem assays: 1297, 1032 ]", "format": "functional"}, "[10]": {"test": "off-target signal loss in HeLa-CEM21 co-culture – HeLa F-luc CTL cells, cherry-picked, counter-screen for HIV-1 Env fusion inhibitor project, dose response (AID 652040)", "format": "functional, cell-based"}, "Troponin, cardiac muscle": {"target": "Troponin, cardiac muscle (Homo sapiens, UniProt P19429+P45379+P63316)", "test": "Fluorescence-based biochemical high throughput dose response assay for activators of the calcium sensitivity of cardiac Regulated Thin Filaments (RTF). [Related pubchem assays (depositor defined):AID493008, AID493018, AID504382, AID504383]", "format": "protein-complex assay"}, "Ion channel NompC": {"target": "Ion channel NompC (Danio rerio, UniProt Q7T1G6)", "sequence (Q7T1G6 whole entry)": "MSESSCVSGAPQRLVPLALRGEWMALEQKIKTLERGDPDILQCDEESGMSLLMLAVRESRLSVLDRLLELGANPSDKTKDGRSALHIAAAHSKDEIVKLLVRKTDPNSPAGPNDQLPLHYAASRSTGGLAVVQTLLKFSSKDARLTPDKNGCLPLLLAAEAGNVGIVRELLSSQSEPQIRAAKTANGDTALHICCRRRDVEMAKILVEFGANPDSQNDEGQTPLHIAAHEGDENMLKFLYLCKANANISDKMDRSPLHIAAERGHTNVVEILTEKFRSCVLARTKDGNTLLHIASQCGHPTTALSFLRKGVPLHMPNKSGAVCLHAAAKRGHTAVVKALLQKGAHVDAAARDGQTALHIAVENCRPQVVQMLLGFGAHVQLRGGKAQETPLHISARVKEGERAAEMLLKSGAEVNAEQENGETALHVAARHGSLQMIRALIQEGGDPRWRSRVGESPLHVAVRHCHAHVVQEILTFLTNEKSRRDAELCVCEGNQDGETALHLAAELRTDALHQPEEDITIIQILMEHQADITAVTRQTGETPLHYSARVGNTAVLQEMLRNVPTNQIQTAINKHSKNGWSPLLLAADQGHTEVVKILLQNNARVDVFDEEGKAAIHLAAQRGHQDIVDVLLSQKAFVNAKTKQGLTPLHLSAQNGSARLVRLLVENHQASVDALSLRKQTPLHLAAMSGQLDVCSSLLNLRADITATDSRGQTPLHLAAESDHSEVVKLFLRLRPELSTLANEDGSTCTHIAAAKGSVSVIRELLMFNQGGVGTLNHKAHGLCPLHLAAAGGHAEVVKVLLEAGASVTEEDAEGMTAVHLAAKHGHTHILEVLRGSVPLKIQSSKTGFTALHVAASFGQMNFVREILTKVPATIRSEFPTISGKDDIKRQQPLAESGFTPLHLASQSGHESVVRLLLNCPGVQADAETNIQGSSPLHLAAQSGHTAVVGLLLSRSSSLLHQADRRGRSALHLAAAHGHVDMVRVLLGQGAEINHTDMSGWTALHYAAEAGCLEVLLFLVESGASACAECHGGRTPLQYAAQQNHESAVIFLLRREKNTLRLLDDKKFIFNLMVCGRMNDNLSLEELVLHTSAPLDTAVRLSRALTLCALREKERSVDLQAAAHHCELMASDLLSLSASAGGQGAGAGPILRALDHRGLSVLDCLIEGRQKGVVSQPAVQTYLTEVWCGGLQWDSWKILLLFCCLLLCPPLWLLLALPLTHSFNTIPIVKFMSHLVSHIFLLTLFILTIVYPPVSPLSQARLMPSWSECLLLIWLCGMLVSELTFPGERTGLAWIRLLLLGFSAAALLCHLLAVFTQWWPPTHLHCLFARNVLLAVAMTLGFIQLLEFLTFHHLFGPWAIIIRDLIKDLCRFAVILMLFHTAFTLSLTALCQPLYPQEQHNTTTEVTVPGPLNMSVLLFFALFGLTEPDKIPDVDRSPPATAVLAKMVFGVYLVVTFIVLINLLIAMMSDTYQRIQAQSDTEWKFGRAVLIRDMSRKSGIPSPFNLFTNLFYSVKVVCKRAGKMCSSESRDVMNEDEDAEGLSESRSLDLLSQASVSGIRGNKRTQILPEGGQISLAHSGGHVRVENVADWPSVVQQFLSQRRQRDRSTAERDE", "test": "Dose response cell-based high-throughput screening assay for agonists of the transient receptor potential channel N1 (TRPN1). [Related pubchem assays (depositor defined):AID1424, AID1448]", "format": "functional"}, "[11]": {"test": "microbe, parasite or virus in culture", "format": "functional", "settings": "Mycobacterium tuberculosis"}, "Mucolipin-3": {"target": "T2, Mucolipin-3 (Homo sapiens, UniProt Q8TDD5)", "T2 sequence (Q8TDD5 whole entry)": "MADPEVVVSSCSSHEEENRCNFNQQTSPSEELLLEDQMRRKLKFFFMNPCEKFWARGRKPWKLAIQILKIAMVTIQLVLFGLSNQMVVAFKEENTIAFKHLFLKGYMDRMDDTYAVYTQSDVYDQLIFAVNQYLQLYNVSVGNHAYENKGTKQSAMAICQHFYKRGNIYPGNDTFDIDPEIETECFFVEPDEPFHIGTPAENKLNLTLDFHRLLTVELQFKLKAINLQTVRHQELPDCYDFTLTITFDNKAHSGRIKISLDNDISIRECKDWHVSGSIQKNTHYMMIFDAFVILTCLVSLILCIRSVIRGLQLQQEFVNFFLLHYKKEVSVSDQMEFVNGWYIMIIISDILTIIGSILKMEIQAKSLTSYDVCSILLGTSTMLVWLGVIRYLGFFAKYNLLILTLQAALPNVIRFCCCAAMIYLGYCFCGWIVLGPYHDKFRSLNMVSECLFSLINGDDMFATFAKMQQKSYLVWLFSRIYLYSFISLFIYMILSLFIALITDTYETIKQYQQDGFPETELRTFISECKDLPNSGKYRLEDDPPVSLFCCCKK", "test": "Fluorescence counterscreen assay for […] agonists: dose response cell-based high-throughput screening assay to identify agonists of the transient receptor potential channel ML3 (TRPML3). [Related pubchem assays: 1424, 1448 ]", "format": "functional"}},
  "note": "The source made the active and inactive calls.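 Wherever AC50 is given: potency for signal decrease marking cytotoxic or nonspecific inhibition.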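 Wherever Absolute IC50 (XBP1) is given: confirmatory dose-response counter-screen serving a CHOP assay.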",
  "data": [
    {"smiles": "Cc1nc(N2CCC(C)CC2)c2c(C)c(C(=O)Nc3ccc(C)c(F)c3)sc2n1", "values": [
      {"measurement": "IC50", "setting": "[1]", "value": "> 32 µM (inactive)"}
    ]},
    {"smiles": "O=C1NC(=O)N(Cc2ccco2)C(=O)/C1=C/C=C/c1ccco1", "values": [
      {"measurement": "Absolute IC50 (CHOP)", "setting": "[2]", "value": 10, "unit": "µM"},
      {"measurement": "IC50", "setting": "HEK293 [3]", "value": "> 20 µM (inactive)"},
      {"measurement": "IC50", "setting": "HEK293 [4]", "value": "16.2 µM (active)"},
      {"measurement": "EC50", "setting": "HEK293 [5]", "value": "> 20 µM (inactive)"},
      {"measurement": "IC50", "setting": "HEK293 [6]", "value": "> 20 µM (inactive)"},
      {"measurement": "Absolute IC50 (XBP1)", "setting": "X-box-binding protein 1", "value": 10, "unit": "µM"}
    ]},
    {"smiles": "CSc1oc(-c2ccccc2)nc1C(N)=O", "values": [
      {"measurement": "EC50", "setting": "[7]", "value": "> 79.4 µM (not active)"},
      {"measurement": "EC50", "setting": "[8]", "value": "359 µM (inactive)"},
      {"measurement": "EC50", "setting": "[9]", "value": "60.1 µM (not active)"}
    ]},
    {"smiles": "Cc1ccc(Cn2ncc3c(N4CCN(c5ccc(C)cc5)CC4)ncnc32)cc1", "values": [
      {"measurement": "AC50", "setting": "[10]", "value": "6.95 µM (active)"},
      {"measurement": "IC50", "setting": "[1]", "value": "> 32 µM (inactive)"}
    ]},
    {"smiles": "COc1cc(CCCN2C(S)=NC[C@@H]2CC2CCCCC2)cc(OC)c1OC", "values": [
      {"measurement": "EC50", "setting": "Troponin, cardiac muscle", "value": "> 71.5 µM (inactive)"}
    ]},
    {"smiles": "C/C(=C1/C(=O)N(c2ccc([N+](=O)[O-])cc2)N=C1c1ccccc1)N(C)C", "values": [
      {"measurement": "EC50", "setting": "Ion channel NompC", "value": "3.71 µM (active)"},
      {"measurement": "CC50", "setting": "[11]", "value": "10.6 µM (active)"},
      {"measurement": "EC50", "setting": "Mucolipin-3", "value": "5.21 µM (active)"}
    ]}
  ]
}
